SMILES strings stand for the structures. pIC50: −log10 of the molar value.

For data set [1], the target named is PAF (10 nM)-induced aggregation (Cavia porcellus, UniProt P21556). The data set is described as follows: Inhibitory effect on PAF-induced platelet aggregation (platelet rich plasma, absorbancy method, aggregometer of Born). Type of data set: cell-based. The settings on record: male guinea pig platelet rich plasma. The protocol:
Whole blood of male guinea pig was collected with a 3.8% aqueous solution of trisodium citrate in a proportion of 9:1 (v/v) and the mixture was centrifuged (120 x g) for 10 minutes at room temperature to obtain platelet rich plasma. Using obtained plasma, PAF (10 nM)-induced aggregation was determined by the absorbancy method using an aggrego-meter of Born [cf. J. Physiol., 162, 67 (1962)].
The evaluation is conducted using the concentration of compounds of the present invention required to produce a 50% inhibition of each effect, i.e. IC50.

A further data set relates to mice. The data set is described as follows: Acute toxicity by intravenous administration. The format is in vivo. The settings on record: five mice, intravenous to tail vein, dose of 100 mg/Kg. The protocol:
On the other hand, it was confirmed that the acute toxicity of all extent of the compounds of the present invention was more than 100 mg/Kg by intravenous administration. Therefore, glycerol derivatives of the present invention may be considered to be sufficiently safe and suitable for medical use. For example, the mortality (daed/used) in glycerol derivatives of the present invention, i.e. compounds prepared in Example 4 was 0/5, when glycerol derivatives was intravenous administered to tail vein in five mice at the dose of 100 mg/Kg.

Chain of PAF (10 nM)-induced aggregation (P21556 whole entry): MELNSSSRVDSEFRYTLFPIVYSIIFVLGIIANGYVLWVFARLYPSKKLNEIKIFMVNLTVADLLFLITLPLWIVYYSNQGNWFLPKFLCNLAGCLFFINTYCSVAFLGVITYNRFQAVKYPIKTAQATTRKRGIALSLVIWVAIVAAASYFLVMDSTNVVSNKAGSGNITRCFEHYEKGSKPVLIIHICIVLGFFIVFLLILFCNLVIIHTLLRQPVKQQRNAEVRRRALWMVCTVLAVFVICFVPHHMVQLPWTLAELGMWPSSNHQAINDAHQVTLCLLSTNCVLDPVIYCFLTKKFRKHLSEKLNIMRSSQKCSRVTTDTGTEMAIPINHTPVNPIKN

What is called pIC50 is −log10 of the IC50, conventionally taken in molar units. High values mean a small IC50, low ones a large IC50. For `CCCCCCCCCCCCCCCCOCC(COCCCc1ccc([N+](C)(C)C)cc1)NC(=O)OCC(C)C` (racemic) [Example 9], the pIC50 in data set [1] was 5.43.

Consider `CCCCCCCCCCCCCCCCOCC(COc1ccc(CCCC[N+](C)(C)C)cc1)NC(=O)NC` (centres unmarked) [5(a)], for which the pIC50 in data set [1] was 5.33.

Regarding `CCCCCCCCCCCCCCCCOCC(COc1ccc(CCCC[N+](C)(C)C)cc1)OC(C)=O` (centres unmarked) [Example 2], in data set [1], the negative logarithm of the IC50 (pIC50) was 5.30.

As for `CCCCCCCCCCCCCCCCOCC(COc1ccc(CCCC[N+](C)(C)C)cc1)NC(=O)OCC(C)C` (centres unmarked) [Example 4], the “mortality (daed/used)” value with mice is reported as 0/5.

Turning to `CCCCCCCCCCCCCCCCOCC(COc1ccc(CCCC[N+](C)(C)C)cc1)NC(C)=O` (centres unmarked) [Example 5], in data set [1], the pIC50 is 5.17.

The values are drawn from patent EP0145303A1, “Glycerol derivatives” (ONO PHARMACEUTICAL CO., LTD., priority 1983, dated 1985).
